The source of these data is patent US4812458A, “6,7-disubstituted-2,3-dihydroxyquinoxaline compounds, pharmaceutical compositions thereof, and their use as neuroleptics” (A/S Ferrosan, priority 1987, dated 1989).

Test [1] concerns the target quisqualate type receptors (rat cerebral cortical membrane homogenate). In words: 3H-AMPA binding (displacement of 3H-AMPA from the quisqualate type receptors). The note with it: displacement of 50% of specific 3H-AMPA binding; 5 nM 3H-AMPA, 0° C., 30 min, pH 7.1. As to the method:
(§1) The pharmacological properties of the compounds of the present invention can be illustrated by determining their capability for displacing radioactively labelled 2-amino-3-hydroxy-5-methyl-4-isoxazolepropionic acid (AMPA) from the quisqualate type receptors.
The displacement activity of the compounds may be shown by determining the IC50 value which represents the concentration (μg/ml) which causes a displacement of 50% of the specific binding of ^3 H-AMPA.
500 μl of thawed rat cerebal cortical membrane homogenate in Tris-HCl (30 mM), CaCl2 (2.5 mM) and KSCN ([…]) pH 7.1 were incubated at 0° C. for 30 min. with 25 μl ^3 H-AMPA (5 nM final concentration) and the test compound and buffer. Nonspecific binding was determined by incubation with L-glutamic acid (600 μM final concentration). The binding reaction was terminated by adding 5 ml of ice-cold buffer followed by filtration through Whatman GF/C glass fibre filters and 2×5 ml wash with ice-cold buffer. Bound radioactivity was measured by scintillation counting. IC50 was determined by Hill analysis of at least four concentrations of test compound.

For test [2], the system named is quisqualic acid stimulated Na+-efflux from rat striatal slices. Put plainly: Antagonism of quisqualic acid induced 22Na+-release. In kind it is cell-based. The following applies: concentration reducing quisqualic acid (2 μg/ml) stimulated 22Na+ efflux rate by 50%. Here is the method: as §1
The antagonism is measured by determining the EC50 value which represents the concentration which reduces the rate of quisqualic acid stimulated sodium efflux by 50%.
Antagonism of quisqualic acid induced ^22 Na^+ -release
Slices from rat striatum were preincubated with ^22 Na^+ for 30 min. After the ^22 Na^+ loading period, the slices were successively and every minute transferred through a series of tubes, each containing 1.5 ml of a non-radioactive physiological solution saturated with O2, with the help of a basket shaped sieve. Quisqualic acid (2 μg/ml) was present in the last 5 tubes and the compound to be tested was present in the same 5 tubes plus 3 tubes before. The amount of radioactivity in each washout tube as well as that left in the slices at the end of the experiment was measured by scintillation counting. EC50 -values were calculated by Hill analysis from at least three different concentrations of test compound as the concentration of test compound which reduces the efflux rate of ^22 Na^+ -ions to 50% of the efflux rate in the absence of test compound.

Structures are written as SMILES. Converted amounts (≈) assume the structure as drawn.

As for `N#Cc1cc2nc(O)c(O)nc2cc1[N+](=O)[O-]` [Example 2, 6-Cyano-2,3-dihydroxy-7-nitroquinoxaline], the IC50 – broadly, the point on the concentration scale where inhibition reaches its midpoint – in test [1] came to 0.06 µg/mL (≈ 0.258 µM). Besides, in test [2], the EC50 – broadly, the concentration that produces a half-maximal response – turned out to be 0.7 µg/mL (≈ 3.02 µM). The matching figures for `[N-]=[N+]=Nc1cc2nc(O)c(O)nc2cc1[N+](=O)[O-]` [Example 3, 6-Azido-2,3-dihydroxy-7-nitroquinoxaline]: 0.26 µg/mL (≈ 1.05 µM) and 3 µg/mL (≈ 12.1 µM).

Consider `N#Cc1cc2nc(O)c(O)nc2cc1C(F)(F)F` [Example 5, 6-Cyano-2,3-dihydroxy-7-trifluoromethylquinoxaline], for which the IC50 in test [1] worked out at 0.39 µg/mL (≈ 1.53 µM).

Take `O=[N+]([O-])c1cc2nc(O)c(O)nc2cc1Cl` [Example 7, 6-Chloro-2,3-dihydroxy-7-nitroquinoxaline]: the IC50 in test [1] was found to be 0.43 µg/mL (≈ 1.78 µM). Besides, the EC50 in test [2] was 3 µg/mL (≈ 12.4 µM). In test [1], `N#Cc1cc2nc(O)c(O)nc2cc1Cl` [Example 8, 6-Chloro-7-cyano-2,3-dihydroxyquinoxaline] returned an IC50 of 0.82 µg/mL (≈ 3.7 µM).
